Assay results: patent EP0005422A2, “Derivatives of omega-dialkylalkanoic acids, processes for their preparation and their therapeutical use” (SANOFI S.A., priority 1978, dated 1979)
In brackets after ≈: the same amount, converted by molar mass. Where two headings read alike, the source gives them in different places.

Columns and labels:
[1] = test system: Crise à l'acide β-mercaptopropionique; experiment: β-mercaptopropionic acid seizure test (Crise à l'acide β-mercaptopropionique); assay type: in vivo, souris; conditions: for ED50: Mus musculus, po
Experimental: L'acide p-mercaptopropionique est un inhibiteur de la glutamate décarboxylase (G.A.D.), enzyme qui catalyse la transformation du glutamate en acide y-aminobutyrique (GABA). Son action se traduit donc par un abaissement du taux de GABA et la survenue de crises généralisées tonico-cloniques 3 à 4 minutes après son administration.
L'acide β-mercaptopropionique a été administré à des lots de 10 souris mâles, par voie intrapéritonéale, à la dose de 70 mg/kg, 30 minutes après l'administration orale d'une dose du composé à étudier. On note le pourcentage des animaux protégés contre la crise tonique 15 minutes après l'administration de l'acide β-mercaptopropionique.

[2] = Acute toxicity (toxicité aiguë); assay type: in vivo; conditions: mouse, in vivo, po, 1000 mg/kg, mice, 1000 mg/kg oral; read-out: mortalité
Experimental: (§1) Des tests de toxicité aiguë pratiqués sur souris ont montré qu'à la dose de 1000 mg/kg, par voie orale, la mortalité provoquée par le n-propyl-3 hexanoate de magnésium et le n-propyl-3 hexanamide est respectivement de 40% et 0%.
(§2) A titre de comparaison, le n-propyl-3 hexanoate de sodium à la dose de 1000 mg/kg par voie orale provoque déjà 80% de mortalité.

Crise pentétrazolique = experiment: Pentetrazol seizure test (Crise pentétrazolique); assay type: in vivo, souris; conditions: mice, 15 minutes after administration of pentetrazol; for ED50: Mus musculus, po, 0.25 h, read-out: DE50 (the source's name)
Experimental: Ce test, pratiqué sur souris par voie orale, est identique à celui décrit dans le brevet français N° 2.276.036.
Les DE50 obtenues 15 minutes après l'administration du pentécra- zol sont reprises ci-dessous comparativement aux résultats trouvés pour les sels de sodium correspondants : [drawing 12]

Anoxie par confinement = experiment: Anoxia by confinement (Anoxie par confinement); assay type: in vivo, souris; conditions: for % d'augmentation du temps de survie: male mice, 75 mg/kg intraperitoneal, versus controls
Experimental: Des lots de 15 souris mâles sont traités au moyen d'une dose de composé à étudier puis chaque animal est placé dans une enceinte hermétiquement close de 200 cm^3. L'animal est considéré comme mort au moment de l'arrêt respiratoire.
On détermine alors le % d'augmentation du temps de survie par rapport à des témoins.
On trouvera ci-dessous des résultats obtenus avec des composés de l'invention à la dose de 75 mg/kg par voie intrapéritonéale : [drawing 14]

[3] = Solubility and pH of aqueous solution; assay type: physicochemical; conditions: for solubility: water
souris = experiment: Acute toxicity (toxicité aiguë); assay type: in vivo; conditions: mice, 1000 mg/kg oral
Experimental: as §1, §2

[4] = test system: activité anticonvulsivante; experiment: Pharmacological studies of anticonvulsant activity (method not specified); assay type: in vivo; conditions: at identical doses, compared with di-n-propylacétate de sodium
[5] = male mice, compound oral 30 minutes before β-mercaptopropionic acid 70 mg/kg i.p., protection against tonic seizure 15 minutes after, read-out: DE50 (the source's name)
[6] = male mice, compound oral 30 minutes before β-mercaptopropionic acid 70 mg/kg i.p., protection against tonic seizure 15 minutes after

SMILES | ED50 [1, 5] [mg/kg] | ED50 (Crise pentétrazolique) [mg/kg] | % d'augmentation du temps de survie (Anoxie par confinement) [%] | also measured
CCCC(CCC)CC(N)=O [Y=NH2, n=0, n-propyl-3 hexanamide] | 106 | 65 |  | mortality [2]: 0%
CCCC(CCC)CCC(N)=O [Y=NH2, n=1, n-propyl-4 heptanamide] |  | 104 | 15 | 
CCCC(CCC)CCCC(N)=O [Y=NH2, n=2, n-propyl-5 octanamide] | 129 | 121 | 64 | 
CCCC(CCC)CCC(=O)O [Y=OCa1/2, n=1, n-propyl-4 heptanoate de calcium] |  |  | 27 | DE50 [1, 6]: 101 mg/kg; solubility ([3]; dissolves very slowly, read-out: se dissout dans l'eau): 1000 mg/mL
CCCC(CCC)CC(=O)O [Y=OMg1/2, n=0, n-propyl-3 hexanoate de magnésium] |  |  | 36 | DE50 [1, 6]: 145 mg/kg; mortalité (souris): 40%; pH ([3]; 2% aqueous solution, slightly opalescent): 9,4
CCCC(CCC)CCCC(=O)O [Y=OMg1/2, n=2, n-Propyl-5 octanoate de magnésium] |  |  | 56 | DE50 [1, 6]: 124 mg/kg; DE50 (Crise pentétrazolique; oral route, 15 min): 152 mg/kg; solubilité dans les solvants organiques ([3]; organic solvents): Bonne solubilité; solubility ([3]; read-out: Solubilité dans l'eau): 1 mg/mL (≈ 5.37 mM)
CCCC(CCC)CC(=O)O [Y=ONa, n=0, n-propyl-3 hexanoate de sodium, reference compound] | 168 | 95 |  | mortalité (souris): 80%
CCCC(CCC)CCC(=O)O [Y=ONa, n=1, reference compound] | 124 | 119 |  | 
CCCC(CCC)CCCC(=O)O [Y=ONa, n=2, reference compound] |  | 172 |  | 
CCCC(CCC)C(=O)O [di-n-propylacétate de sodium, reference compound] |  |  |  | ED50 ([1]; read-out: DE50): 175 mg/kg; augmentation du temps de survie (Anoxie par confinement; 200 mg/kg intraperitoneal, comparative test): 32%
CCCC(CCC)C(=O)O [sel de calcium] |  |  |  | potentialités anticonvulsivantes [4]: sensiblement équivalentes à celles du di-n-propylacétate de sodium et même légèrement inférieures
